Measurements published in paper PMC7588194 (Virulence, 2020).

Tested on: P. aeruginosa (ATCC 27853)
Test: Radial diffusion assay
Type: cell-based
Conditions: for enhancement of antimicrobial activity among derivatives D1-D7 / concentration achieving similar inhibition zones: Figure 6C
Experimental: To identify library fractions and purified peptides with antibacterial activity a radial diffusion assay was carried out. Bacteria were cultured in liquid THY broth (Todd-Hewitt Broth [Oxoid, CM0189B] supplemented with 0.5% yeast extract [BD, Miami, USA, 212,750]) at 37°C overnight in a 5% CO2 atmosphere, pelleted by centrifugation and washed in 10 mM sodium phosphate buffer. Following resuspension in 10 mM sodium phosphate buffer optical density was determined spectrophotometrically at 600 nm (OD600nm). Bacterial density was adjusted to seed 2 × 10^7 bacteria into a petri dish in 1% agarose dissolved in 10 mM sodium phosphate buffer. Plates were allowed to cool for 30 min at 4°C before several 2–3 mm holes were placed into the 1% agarose. Freeze-dried fractions of the BAL library pool were reconstituted in 200 µl of ddH2O with 10 µl being used for the initial screen. Alternatively, peptides adjusted to the desired concentration in 10 µl of ddH2O were filled into the agar-holes. Following incubation at 37°C in ambient air for 3 h plates were overlaid with 10 ml of a 1% agarose solution containing 3% tryptic soy broth (TSB) dissolved in 10 mM phosphate buffer. Inhibition zones in cm were determined following 16–18 h incubation time at 37°C in a 5% CO2 atmosphere.

| Sequence | enhancement of antimicrobial activity among derivatives D1-D7 | concentration achieving similar inhibition zones | times the amount needed compared to D7 at 25 µg/ml for similar inhibition zones |
| --- | --- | --- | --- |
| GVNHVILSQIKIVKW [B2M D6] | most convincing enhancement of antimicrobial activity | – | – |
| GVNHVKLSQIKIVKW [B2M D7] | most convincing enhancement of antimicrobial activity | 25 µg/mL | – |
| RVNHVTLSQPKIVKW [B2M 101-115] | – | 50 to 100 µg/mL | 2–4 |
